Patent US20240116985A1, “STAPLED PEPTIDES AND METHODS THEREOF” (priority 2020, published 2024)
Read-outs that look alike come from different tables or passages of the source.

How the values were obtained:
CHI Log D procedure = format: physicochemical; settings: for CHI Log D: pH 7.4; for chromatographic logD: pH 7.4, CHI Log D
[1] = target: T1, full-length beta-Catenin (Uniprot ID P35222) (Homo sapiens, UniProt P35222); assay: Fluorescence polarization IC50 (beta-catenin / 5FAM-TCF4 10-53 competition); format: binding
T1 construct: 10 nM full-length beta-Catenin (Uniprot ID P35222)
T1 sequence (P35222 1-781): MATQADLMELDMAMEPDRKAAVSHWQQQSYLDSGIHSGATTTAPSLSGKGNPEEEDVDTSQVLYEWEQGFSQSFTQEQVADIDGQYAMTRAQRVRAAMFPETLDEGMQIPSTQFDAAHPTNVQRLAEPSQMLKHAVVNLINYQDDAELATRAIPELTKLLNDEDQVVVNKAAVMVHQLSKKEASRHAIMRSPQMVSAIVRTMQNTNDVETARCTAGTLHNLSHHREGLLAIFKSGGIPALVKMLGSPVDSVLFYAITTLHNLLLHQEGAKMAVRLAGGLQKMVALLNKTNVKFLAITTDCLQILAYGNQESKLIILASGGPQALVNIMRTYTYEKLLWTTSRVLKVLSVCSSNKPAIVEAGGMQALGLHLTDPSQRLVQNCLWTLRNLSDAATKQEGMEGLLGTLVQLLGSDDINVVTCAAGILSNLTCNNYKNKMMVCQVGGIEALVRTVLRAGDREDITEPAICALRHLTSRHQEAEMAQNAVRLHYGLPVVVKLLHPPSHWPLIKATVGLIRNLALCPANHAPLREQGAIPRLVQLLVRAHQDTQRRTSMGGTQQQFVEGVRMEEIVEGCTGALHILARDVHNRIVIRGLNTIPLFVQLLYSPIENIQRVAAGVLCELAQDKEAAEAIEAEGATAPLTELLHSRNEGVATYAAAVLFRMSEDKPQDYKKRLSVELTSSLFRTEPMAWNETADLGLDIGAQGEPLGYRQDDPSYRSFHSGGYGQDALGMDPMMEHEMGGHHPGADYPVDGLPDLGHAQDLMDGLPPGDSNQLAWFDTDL

[2] = fluorescence polarization, read-out: beta-Catenin FP IC50
[3] = fluorescence polarization, beta-catenin, read-out: FP EC50

SMILES | CHI Log D (CHI Log D procedure) | IC50 ([1]; read-out: FP EC50) | chromatographic logD (CHI Log D procedure) | IC50 [1, 2] | IC50 ([1]; read-out: beta-Catenin FP IC50) | IC50 ([1]; Table E2-1, read-out: beta-Catenin FP IC50) | IC50 [1, 3]
CC[C@H](C)[C@@H]1NC(=O)[C@H](CC(=O)O)NC(=O)[C@]2(CC=CCCCC3(CCCC=CCCCCCC[C@@](C)(C(=O)N[C@@H](Cc4ccccc4)C(=O)N[C@@H](Cc4csc5ccccc45)C(=O)N[C@@H](CCC(N)=O)C(N)=O)NC(=O)[C@H](CCC(N)=O)NC(=O)[C@H](Cc4ccccc4)NC(=O)[C@H](C)NC(=O)[C@H](CCCCNC(=O)CN=[N+]=[N-])NC(=O)[C@H](CCC(=O)O)NC(=O)[C@H](CC(=O)O)NC3=O)NC1=O)CCCN2C(C)=O (stereo partly drawn) [I-591, Ac-PL3-Asp-Ile-B5-Asp-Glu-[AzAc]Lys-Ala-Phe-Gln-S8-Phe-BztA-Gln-NH2] | 2.348 | 64 nM |  |  |  |  | 
CC(=O)N1CCC[C@]12CC=CCCCC1(CCCC=CCCCCCC[C@@](C)(C(=O)N[C@@H](Cc3ccccc3)C(=O)N[C@@H](Cc3csc4ccccc34)C(=O)N[C@@H](CCC(N)=O)C(N)=O)NC(=O)[C@H](CC(N)=O)NC(=O)[C@H](Cc3ccco3)NC(=O)[C@H](C)NC(=O)[C@H](C)NC(=O)[C@H](CCC(=O)O)NC(=O)[C@H](CC(=O)O)NC1=O)NC(=O)[C@H](C)NC(=O)[C@H](CC(=O)O)NC2=O (stereo partly drawn) [I-460, Ac-PL3-Asp-Ala-B5-Asp-Glu-Ala-Ala-2FurA-Asn-S8-Phe-BztA-Gln-NH2] |  |  | 1.99 | 195 nM |  |  | 
CC(=O)N1CCC[C@]12CC=CCCCC1(CCCC=CCCCCCC[C@@](C)(C(=O)N[C@@H](Cc3ccccc3)C(=O)N[C@@H](Cc3csc4ccccc34)C(=O)N[C@@H](C(N)=O)[C@H](C)O)NC(=O)[C@H](CC(N)=O)NC(=O)[C@H](Cc3ccccc3)NC(=O)[C@H](C)NC(=O)[C@H](C)NC(=O)[C@H](CCC(=O)O)NC(=O)[C@H](CC(=O)O)NC1=O)NC(=O)[C@H](CC(C)C)NC(=O)[C@H](CC(=O)O)NC2=O (stereo partly drawn) [I-754, Ac-PL3-Asp-Leu-B5-Asp-Glu-Ala-Ala-Phe-Asn-S8-Phe-BztA-dThr-NH2] | 2.666 | 115 nM |  |  | 115 nM |  | 
CC[C@H](C)[C@H](NC(=O)[C@H](Cc1c[nH]cn1)NC(=O)[C@H](Cc1csc2ccccc12)NC(=O)[C@H](Cc1ccccc1)NC(=O)[C@]1(C)CCCCCCC=CCCCC2(CCCC=CC[C@]3(CCCN3C(C)=O)C(=O)N[C@@H](CC(=O)O)C(=O)N[C@@H](CC(C)C)C(=O)N2)C(=O)N[C@@H](CC(=O)O)C(=O)N[C@@H](CCC(=O)O)C(=O)N[C@@H](C)C(=O)N[C@@H](C)C(=O)N[C@@H](Cc2ccccc2)C(=O)N[C@@H](CC(N)=O)C(=O)N1)C(N)=O (stereo partly drawn) [I-740, Ac-PL3-Asp-Leu-B5-Asp-Glu-Ala-Ala-Phe-Asn-S8-Phe-BztA-His-Ile-NH2] | 2.822 | 376 nM |  | 376 nM |  |  | 
CC[C@H](C)[C@H](NC(=O)[C@H](CCC(N)=O)NC(=O)[C@H](Cc1csc2ccccc12)NC(=O)[C@H](Cc1ccccc1)NC(=O)[C@]1(C)CCCCCCC=CCCCC2(CCCC=CC[C@]3(CCCN3C(C)=O)C(=O)N[C@@H](CC(=O)O)C(=O)N[C@@H](CC(C)C)C(=O)N2)C(=O)N[C@@H](CC(=O)O)C(=O)N[C@@H](CCC(=O)O)C(=O)N[C@@H](C)C(=O)N[C@@H](C)C(=O)N[C@@H](Cc2ccccc2)C(=O)N[C@@H](CC(N)=O)C(=O)N1)C(N)=O (stereo partly drawn) [I-732, Ac-PL3-Asp-Leu-B5-Asp-Glu-Ala-Ala-Phe-Asn-S8-Phe-BztA-Gln-Ile-NH2] | 2.121 | 4220 nM |  | 4220 nM |  |  | 
CC[C@H](C)[C@@H]1NC(=O)[C@H](CC(=O)O)NC(=O)[C@]2(CC=CCCCC3(CCCC=CCCCCCC[C@@](C)(C(=O)N[C@@H](Cc4ccccc4)C(=O)N[C@@H](Cc4csc5ccccc45)C(=O)N[C@@H](CCC(N)=O)C(=O)N[C@@H](CCCCNC(=O)CN=[N+]=[N-])C(N)=O)NC(=O)[C@H](CCC(N)=O)NC(=O)[C@H](Cc4ccccc4)NC(=O)[C@H](C)NC(=O)[C@H](C)NC(=O)[C@H](CCC(=O)O)NC(=O)[C@H](CC(=O)O)NC3=O)NC1=O)CCCN2C(C)=O (stereo partly drawn) [I-596, Ac-PL3-Asp-Ile-B5-Asp-Glu-Ala-Ala-Phe-Gln-S8-Phe-BztA-Gln-[AzAc]Lys-NH2] | 2.373 | 112 nM |  |  |  |  | 
CC(=O)N1CCC[C@]12CC=CCCCC1(CCCC=CCCCOC(=O)N3CC[C@@](C(=O)N[C@@H](Cc4ccsc4)C(=O)N[C@@H](Cc4csc5ccccc45)C(=O)N[C@@H](CCC(N)=O)C(=O)N[C@@H](CCCCNC(=O)CCc4cc(C(F)(F)F)cc(C(F)(F)F)c4)C(N)=O)(C3)NC(=O)[C@H](CC(N)=O)NC(=O)[C@H](Cc3ccccc3)NC(=O)[C@H](C)NC(=O)[C@H](C)NC(=O)[C@H](CC(=O)O)NC(=O)[C@H](CC(=O)O)NC1=O)NC(=O)[C@H](CC(C)(C)C)NC(=O)[C@H](CC(=O)O)NC2=O (stereo partly drawn) [I-902, Ac-PL3-Asp-Npg-B5-Asp-Asp-Ala-Ala-Phe-Asn-PyrS2-3Thi-BztA-Gln-[35CF3PhPr]Lys-NH2] |  |  | 2.69 |  | 104 nM |  | 
CC(=O)N1CCC[C@]12CC=CCCCC1(CCCC=CCCCCCC[C@@](C)(C(=O)N[C@@H](Cc3cccc(F)c3)C(=O)N[C@@H](Cc3csc4ccccc34)C(=O)N[C@@H](CCC(N)=O)C(N)=O)NC(=O)[C@H](C(C)C)NC(=O)[C@H](Cc3ccccc3)NC(=O)[C@H](C)NC(=O)[C@H](C)NC(=O)[C@H](Cc3cccs3)NC(=O)[C@H](CC(=O)O)NC1=O)NC(=O)[C@H](C)NC(=O)[C@H](CC(=O)O)NC2=O (stereo partly drawn) [I-402, Ac-PL3-Asp-Ala-B5-Asp-2Thi-Ala-Ala-Phe-Val-S8-3FF-BztA-Gln-NH2] |  |  | 3.39 | 5000 nM |  |  | 
CC(=O)N1CCC[C@]12CC=CCCCC1(CCCC=CCOC(=O)N(C)CCC[C@@](C)(C(=O)N[C@@H](Cc3ccccc3)C(=O)N[C@@H](Cc3c[nH]c4ccccc34)C(=O)N[C@@H](CCC(N)=O)C(N)=O)NC(=O)[C@H](C(C)C)NC(=O)[C@H](Cc3ccccc3)NC(=O)[C@H](C)NC(=O)[C@H](C)NC(=O)[C@H](CC(=O)O)NC(=O)[C@H](CC(=O)O)NC1=O)NC(=O)[C@H](C)NC(=O)[C@H](CC(=O)O)NC2=O (stereo partly drawn) [I-54, Ac-PL3-Asp-Ala-B5-Asp-Asp-Ala-Ala-Phe-Val-SeN-Phe-Trp-Gln-NH2] | 1.469 |  |  |  |  | 3190 nM | 3190 nM
CC(=O)N1CCC[C@]12CC=CCCCC1(CCCC=CCCCCCC[C@@](C)(C(=O)N[C@@H](Cc3cccc(F)c3)C(=O)N[C@@H](Cc3csc4ccccc34)C(=O)N[C@@H](CCC(N)=O)C(N)=O)NC(=O)[C@H](CCC(N)=O)NC(=O)[C@H](Cc3ccccc3)NC(=O)[C@H](C)NC(=O)[C@H](C)NC(=O)[C@H](Cc3c[nH]cn3)NC(=O)[C@H](CC(=O)O)NC1=O)NC(=O)[C@H](C)NC(=O)[C@H](CC(=O)O)NC2=O (stereo partly drawn) [I-399, Ac-PL3-Asp-Ala-B5-Asp-His-Ala-Ala-Phe-Gln-S8-3FF-BztA-Gln-NH2] |  |  | 2.52 | 2500 nM |  |  | 
CC(=O)N1CCC[C@]12CC=CCCCC1(CCCC=CCCCOC(=O)N3CC[C@@](C(=O)N[C@@H](Cc4ccsc4)C(=O)N[C@@H](Cc4csc5ccccc45)C(=O)N[C@@H](Cc4ccc(O)cc4)C(N)=O)(C3)NC(=O)[C@H](CC(N)=O)NC(=O)[C@H](Cc3ccccc3)NC(=O)[C@H](C)NC(=O)[C@H](C)NC(=O)[C@H](CN(CC(=O)O)CC(F)(F)F)NC(=O)[C@H](CC(=O)O)NC1=O)NC(=O)[C@H](CC(C)(C)C)NC(=O)[C@H](CC(=O)O)NC2=O (stereo partly drawn) [I-952, Ac-PL3-Asp-Npg-B5-Asp-TfeGA-Ala-Ala-Phe-Asn-PyrS2-3Thi-BztA-Tyr-NH2] | 1.975 |  |  |  | 1210 nM |  | 1210 nM
CC(=O)N1CCC[C@]12CC=CCCCC1(CCCC=CCCCCCC[C@@](C)(C(=O)N[C@@H](Cc3ccccc3)C(=O)N[C@@H](Cc3csc4ccccc34)C(=O)N[C@@H](CCC(N)=O)C(N)=O)NC(=O)[C@H](CCC(N)=O)NC(=O)[C@H](Cc3ccccc3)NC(=O)[C@H](C)NC(=O)[C@H](C)NC(=O)[C@H](CCC(=O)O)NC(=O)[C@H](CC(=O)O)NC1=O)NC(=O)[C@H](CCCCNC(=O)CN=[N+]=[N-])NC(=O)[C@H](CC(=O)O)NC2=O (stereo partly drawn) [I-590, Ac-PL3-Asp-[AzAc]Lys-B5-Asp-Glu-Ala-Ala-Phe-Gln-S8-Phe-BztA-Gln-NH2] | 2.152 | 45 nM |  |  |  |  | 
COc1ccccc1C[C@H](NC(=O)[C@]1(C)CCCCCCC=CCCCC2(CCCC=CC[C@]3(CCCN3C(C)=O)C(=O)N[C@@H](CC(=O)O)C(=O)N[C@@H](C)C(=O)N2)C(=O)N[C@@H](CC(=O)O)C(=O)N[C@@H](CCC(=O)O)C(=O)N[C@@H](C)C(=O)N[C@@H](C)C(=O)N[C@@H](Cc2ccccc2)C(=O)N[C@@H](CCC(N)=O)C(=O)N1)C(=O)N[C@@H](Cc1csc2ccccc12)C(=O)N[C@@H](CCC(N)=O)C(N)=O (stereo partly drawn) [I-525, Ac-PL3-Asp-Ala-B5-Asp-Glu-Ala-Ala-Phe-Gln-S8-2OMeF-BztA-Gln-NH2] | 2.019 | 196 nM |  | 196 nM |  |  | 
